In patent US5397781A, “Pyrimidine derivatives” (Mochida Pharmaceutical Company, Limited, priority 1992, dated 1995):

Molecular target: T1, ACAT (Rattus norvegicus, UniProt Q7TQM4)
T1 construct: Liver microsomes as an enzyme sample of ACAT were prepared from overnight-fasted male rats; from tissue; host or cells: liver of overnight-fasted male rats, 6 weeks old; microsomes
T1 sequence (Q7TQM4 1-524): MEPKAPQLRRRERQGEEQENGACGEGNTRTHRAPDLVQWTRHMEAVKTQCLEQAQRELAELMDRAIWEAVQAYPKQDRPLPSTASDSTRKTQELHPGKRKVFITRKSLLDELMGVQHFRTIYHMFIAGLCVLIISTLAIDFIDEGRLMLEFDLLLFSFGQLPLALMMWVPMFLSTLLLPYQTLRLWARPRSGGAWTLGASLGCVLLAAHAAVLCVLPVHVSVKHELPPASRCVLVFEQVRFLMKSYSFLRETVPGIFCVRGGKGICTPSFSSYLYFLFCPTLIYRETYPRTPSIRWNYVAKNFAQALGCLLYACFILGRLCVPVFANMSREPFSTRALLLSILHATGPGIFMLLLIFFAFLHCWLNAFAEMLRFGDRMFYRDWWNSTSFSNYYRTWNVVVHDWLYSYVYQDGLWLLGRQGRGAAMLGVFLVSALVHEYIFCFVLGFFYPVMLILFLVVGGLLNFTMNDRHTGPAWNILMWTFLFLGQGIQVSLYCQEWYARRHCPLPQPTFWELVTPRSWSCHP
Assay: Inhibitory effect on microsomal ACAT activity in rat liver
Assay type: biochemical
Conditions: rat liver microsomes; read-out: IC50 (50% inhibition of cholesterol esterification)

SMILES | IC50
CCCCCCN(CCCC(=O)Nc1c(OC)nc(SC)nc1N(CC)CC)c1ccccc1 [Example 168, N-[4-(N,N-diethylamino)-6-methoxy-2-methylthiopyrimidin-5-yl]-4-(N-hexyl-N-phenylamino)butanamide] | 87 nM
CCCN(CCCC(=O)Nc1c(SCc2ccccc2)nc(C)nc1N(CCC)c1ccccc1)c1ccccc1 [Example 258, N-[4-benzylthio-2-methyl-6-(N-phenyl-N-propylamino)pyrimidin-5-yl]-4-(N-phenyl-N-propylamino)butanamide] | 230 nM
CCCCCCN(CCCC(=O)Nc1c(SC)nc(C)nc1N(CC)CC)c1ccc(OC)cc1 [Example 239, N-[4-(N,N-diethylamino)-2-methyl-6-methylthiopyrimidin-5-yl]-4-[N-hexyl-N-(4-methoxyphenyl)amino]butanamide] | 120 nM
CCCSc1nc(C)nc(N(CCC)c2ccccc2)c1NC(=O)CCCN(CCC)c1ccccc1 [Example 256, N-[2-methyl-4-(N-phenyl-N-propylamino)-6-propylthiopyrimidin-5-yl]-4-(N-phenyl-N-propylamino)butanamide] | 100 nM
CCCN(CC(=O)Nc1c(SC)nc(C)nc1N(CC)CC)Cc1ccccc1 [Example 210, 2-(N-benzyl-N-propylamino) N-[4-(N,N-diethylamino)-2-methyl-6-methylthiopyrimidin-5-yl]acetamide] | 470 nM
CCCN(CCCC(=O)Nc1c(OCc2ccccc2)nc(C)nc1C(C)C)c1ccccc1 [Example 263, N-(4-benzyloxy-6-isopropyl-2-methylpyrimidin-5-yl)-4-(N-phenyl-N-propylamino)butanamide] | 100 nM
CCCN(CCCC(=O)Nc1c(SC)nc(C)nc1N(CCC)c1ccccc1)c1ccccc1 [Example 218, N-[2-methyl-4-methylthio-6-(N-phenyl-N-propylamino)pyrimidin-5-yl]-4-(N-phenyl-N-propylamino)butanamide] | 430 nM
CCCN(CCCCCC(=O)Nc1c(S)nc(C)nc1N(CCC)c1ccccc1)c1ccccc1 [Example 205, N-[4-mercapto-2-methyl-6-(N-phenyl-N-propylamino)pyrimidin-5-yl]-6-(N-phenyl-N-propylamino)hexanamide] | 280 nM
CCCCCCCN(CCCC(=O)Nc1c(SC)nc(C)nc1N(CC)CC)Cc1ccccc1 [Example 243, 4-(N-benzyl-N-heptylamino)-N-[4-(N,N-diethylamino)-2-methyl-6-methylthiopyrimidin-5-yl]butanamide] | 95 nM
CCCCCCCN(CCCC(=O)Nc1c(S)nc(C)nc1N(CC)CC)Cc1ccccc1 [Example 182, 4-(N-benzyl-N-heptylamino)-N-[4-(N,N-diethylamino)-6-mercapto-2-methylpyrimidin-5-yl]butanamide] | 220 nM
CCCN(CC(=O)Nc1c(S)nc(C)nc1N(CC)CC)c1ccccc1 [Example 133, N-[4-(N,N-diethylamino)-6-mercapto-2-methylpyrimidin-5-yl]-2-(N-phenyl-N-propylamino)acetamide] | 260 nM
CCCN(CCCC(=O)Nc1c(S)nc(C)nc1N(CC)CC)c1ccc(F)cc1F [Example 180, N-[4-(N,N-diethylamino)-6-mercapto-2-methylpyrimidin-5-yl]-4-[N-(2,4-difluorophenyl)-N-propylamino]butanamide] | 200 nM
CCCCN(CCCC)c1nc(C)nc(S)c1NC(=O)CCCN(CCC)c1ccccc1 [Example 146, N-[4-(N,N-dibutylamino)-6-mercapto2-methylpyrimidin-5-yl]-4-(N-phenyl-N-propylamino)butanamide] | 110 nM
CCCN(CCCC(=O)Nc1c(S)nc(C)nc1N(CC)CC)c1ccc(OC)cc1 [Example 173, N-[4-(N,N-diethylamino)-6-mercapto-2-methylpyrimidin-5-yl]-4-[N-(4-methoxyphenyl)-N-propylamino]butanamide] | 170 nM
CCCCCCSc1nc(C)nc(N(CCC)c2ccccc2)c1NC(=O)CCCN(CCC)c1ccccc1 [Example 257, N-[4-hexylthio-2-methyl-6-(N-phenyl-N-propylamino)pyrimidin-5-yl]-4-(N-phenyl-N-propylamino)butanamide] | 220 nM
CCCN(CCCC(=O)Nc1c(C(C)C)nc(C)nc1N(CC)CC)c1ccccc1 [Example 266, N-[4-(N,N-diethylamino)-6-isopropyl-2-methylpyrimidin-5-yl]-4-(N-phenyl-N-propylamino)butanamide] | 170 nM

Now those with a lower IC50, led by results:

IC50 | SMILES
26 nM | CCN(CC)c1nc(C)nc(SC)c1NC(=O)CCCN(c1ccccc1)C1CCCCCC1 [Example 235, 4-(N-cycloheptyl-N-phenylamino)-N-[4-(N,N-diethylamino)-2-methyl-6-methylthiopyrimidin-5-yl]butanamide]
56 nM | CCCN(CCCC(=O)Nc1c(SC)nc(C)nc1C(C)C)c1ccccc1 [Example 268, N-(4-isopropyl-2-methyl-6-methylthiopyrimidin-5-yl)-4-(N-phenyl-N-propylamino)butanamide]
47 nM | CCCCN(CCCC)c1nc(C)nc(OC)c1NC(=O)CCCCN(CCC)c1ccccc1 [Example 195, N-[4-(N,N-dibutylamino)-6-methoxy-2-methylpyrimidin-5-yl]-5-(N-phenyl-N-propylamino)pentanamide]
14 nM | CCCN(CCCCC(=O)Nc1c(SC)nc(C)nc1N(CCC)CCC)c1ccccc1 [Example 246, N-[4-(N,N-dipropylamino)-2-methyl-6-methylthiopyrimidin-5-yl]-5-(N-phenyl-N-propylamino)pentanamide]
80 nM | CCCN(CCCC(=O)Nc1c(S)nc(C)nc1N(CC)CC)c1ccccc1 [Example 145, N-[4-(N,N-diethylamino)-6-mercapto-2-methylpyrimidin-5-yl]-4-(N-phenyl-N-propylamino)butanamide]
83 nM | CCCCc1ccc(N(CCC)CCCC(=O)Nc2c(SC)nc(C)nc2N(CC)CC)cc1 [Example 237, 4-[N-(4-butylphenyl)-N-propylamino]-N-[4-(N,N-diethylamino)-2-methyl-6-methylthiopyrimidin-5-yl]butanamide]
8.8 nM | CCCCN(CCCC)c1ncnc(OCC)c1NC(=O)CCCCN(CCC)c1ccccc1 [Example 197, N-[4-(N,N-dibutylamino)-6-ethoxypyrimidin-5-yl]-5-(N-phenyl-N-propylamino)pentanamide]
32 nM | CCCCCCCCCCN(CCCC(=O)Nc1c(SC)nc(C)nc1N(CC)CC)c1ccccc1 [Example 236, 4-(N-decyl-N-phenylamino)-N-[4-(N,N-diethylamino)-2-methyl-6-methylthiopyrimidin-5-yl]butanamide]
35 nM | CCCN(CCCCC(=O)Nc1c(S)nc(C)nc1N(CCC)CCC)c1ccccc1 [Example 188, N-[4-(N,N-dipropylamino)-6-mercapto-2-methylpyrimidin-5-yl]-5-(N-phenyl-N-propylamino)pentanamide]
32 nM | CCCN(CCCCC(=O)Nc1c(SC)nc(C)nc1N(CC)Cc1ccccc1)c1ccccc1 [Example 248, N-[4-(N-benzyl-N-ethylamino)-2-methyl-6-methylthiopyrimidin-5-yl]-5-(N-phenyl-N-propylamino)pentanamide]
33 nM | CCCCCCN(CCCCC(=O)Nc1c(SC)nc(C)nc1N(CC)CC)c1ccccc1 [Example 252, N-[4-(N,N-diethylamino)-2-methyl-6-methylthiopyrimidin-5-yl]-5-(N-hexyl-N-phenylamino)pentanamide]
76 nM | CCCN(CCCC(=O)Nc1c(SC)nc(C)nc1N(CC)CC)c1ccc(F)cc1F [Example 241, N-[4-(N,N-diethylamino)-2-methyl-6-methylthiopyrimidin-5-yl]-4-[N-(2,4-difluorophenyl)-N-propylamino]butanamide]
76 nM | CCCN(CCCC(=O)Nc1c(SCc2ccccc2)nc(C)nc1N(CC)CC)c1ccccc1 [Example 259, N-[4-benzylthio-6-(N,N-dietylamino)-2-methylpyrimidin-5-yl]-4-(N-phenyl-N-propylamino)butanamide]
81 nM | CCCCCCN(CCCC(=O)Nc1c(OC)nc(C)nc1N(CC)CC)c1ccccc1 [Example 166, N-[4-(N,N-diethylamino)-6-methoxy-2-methylpyrimidin-5-yl]-4-(N-hexyl-N-phenylamino)butanamide]
23 nM | CCCCCCN(CCCC(=O)Nc1c(SCCC)nc(C)nc1N(CC)CC)c1ccccc1 [Example 261, N-[4-(N,N-dietylamino)-2-methyl-6-propylthiopyrimidin-5-yl]-4-(N-hexyl-N-phenylamino)butanamide]
9.6 nM | CCCCN(CCCC)c1ncnc(SC)c1NC(=O)CCCCN(CCC)c1ccccc1 [Example 250, N-[4-(N,N-dibutylamino)-6-methylthiopyrimidin-5-yl]-5-(N-phenyl-N-propylamino)pentanamide]
47 nM | CCCN(CCCCC(=O)Nc1c(S)nc(C)nc1N(CC)CC)c1ccccc1 [Example 187, N-[4-(N,N-diethylamino)-6-mercapto-2-methylpyrimidin-5-yl]-5-(N-phenyl-N-propylamino)pentanamide]
25 nM | CCCCCCN(CCCC(=O)Nc1c(SC)nc(SC)nc1N(CC)CC)c1ccccc1 [Example 234, N-[4-(N,N-diethylamino)-2,6-bis(methylthio)pyrimidin-5-yl]-4-(N-hexyl-N-phenylamino)butanamide]
